The test system of one data set is Helicobacter pylori. The experiment in a line: Activity against Helicobacter pylori, agar dilution (method of Iwahi et al.), Columbia agar, 4 days growth. The data set is classed as cell-based. The following applies: Columbia agar (Oxoid), growth period of 4 days, approximate values; for MIC50: 96 h, read-out: Appr. MIC 50. The source says:
The compounds of the formula I were investigated with respect to their activity against Helicobacter pylori following the method described by Tomoyuki Iwahi et al. (Antimicrobial Agents and Chemotherapy, 1991, 490-496) using Columbia agar (Oxoid) and a growth period of 4 days.

Broadly, the melting point is the temperature of the solid-liquid transition. The compound `Cc1c(SCCCSCC2CN(C)C(=O)O2)ccnc1CNc1cnc2ccccc2c1` (stereo not drawn) [Compound 1, 3-Methyl-5-{3-[3-methyl-2-(quinolin-3-ylaminomethyl)pyridin4-ylsulfanyl]propylsulfanylmethyl}oxazolidin-2-one] showed a melting point of 98 to 100 °C. Moreover, in the data set with Helicobacter pylori, the MIC50 was at most 0.1 µg/mL.

As to `Cc1c(SCCCSc2ncccn2)ccnc1CNc1cnc2ccccc2c1` [Compound 2, {3-Methyl4-[3-(pyrimidin-2-ylsulfanyl)propylsulfanyl]pyridin-2-ylmethyl}quinolin-3-ylamine], the MIC50 with Helicobacter pylori was at most 0.1 µg/mL.

In turn, `Cc1c(SCCCN2CCNCC2)ccnc1CNc1cnc2ccccc2c1` [Compound 4, [3-Methyl-4-(3-piperazin-1-ylpropylsulfanyl)pyridin-2-ylmethyl]quinolin-3-ylamine] showed a melting point of 105 to 108 °C.

As for `Cc1c(OCCCCSCc2ccncc2)ccnc1CNc1cnc2ccccc2c1` [Compound 6, {3-Methyl-4-[4-(pyridin4-ylmethylsulfanyl)butoxy]pyridin-2-ylmethyl}quinolin3-ylamine], in the data set on Helicobacter pylori, the MIC50 is at most 0.1 µg/mL.

The compound `Cc1c(OCCCCSCCn2c([N+](=O)[O-])cnc2C)ccnc1CNc1cnc2ccccc2c1` [Compound 7, (3-Methyl-4-{4-[2-(2-methyl-5-nitroimidazol-1-yl)ethylsulfanyl]butoxy}pyridin-2-ylmethyl)-quinolin-3-ylamine] registered a melting point of 154 to 158 °C. Also, the MIC50 in the data set on Helicobacter pylori was at most 0.1 µg/mL.

Consider `Cc1c(SCCSCc2ccncc2)ccnc1CNc1cnc2ccccc2c1` [Compound 8, {3-Methyl-4-[2-(pyridin-4-ylmethylsulfanyl)ethylsulfanyl]pyridin-2-ylmethyl}quinolin-3-ylamine], for which the MIC50 in the data set on Helicobacter pylori is at most 0.1 µg/mL.

In turn, `Cc1c(SCCSCCn2c([N+](=O)[O-])cnc2C)ccnc1CNc1cnc2ccccc2c1` [Compound 9, (3-Methyl-4-{2-[2-(2-methyl-5-nitroimidazol-1-yl)ethylsulfanyl]ethylsulfanyl}pyridin-2-ylmethyl)quinolin-3-ylamine] returned a melting point of 152 to 154 °C. In the data set with Helicobacter pylori, the MIC50 was at most 0.1 µg/mL.

For the compound `Cc1c(SCCCN2CCN(Cc3ccncc3)CC2)ccnc1CNc1cnc2ccccc2c1` [Compound 10, {3-Methyl-4-[3-(4-pyridin-4-ylmethylpiperazin-1-yl)propylsulfanyl]pyridin-2-ylmethyl}-quinolin-3-ylamine], the MIC50 in the data set with Helicobacter pylori is at most 0.1 µg/mL.

Take `Cc1c(SCCCSCC2CCCN(C)C2)ccnc1CNc1cnc2ccccc2c1.O=C(O)C(=O)O` (stereo not drawn) [Compound 11, {3-Methyl-4-[3-(1-methylpiperidin-3-ylmethylsulfanyl)propylsulfanyl]pyridin-2-ylmethyl}-quinolin-3-ylamine oxalate]: the MIC50 with Helicobacter pylori was at most 0.1 µg/mL.

As for `Cc1c(SCCCSCc2ccncc2)ccnc1CNc1cnc2ccccc2c1` [Compound 12, {3-Methyl-4-[3-(pyridin-4-ylmethylsulfanyl)propylsulfanyl]pyridin-2-ylmethyl}quinolin-3-ylamine], in the data set with Helicobacter pylori, the MIC50 is at most 0.1 µg/mL.

For the compound `Cc1c(SCCCCSCCn2c([N+](=O)[O-])cnc2C)ccnc1CNc1cnc2ccccc2c1` [Compound 13, (3-Methyl-4-{4-[2-(2-methyl-5-nitroimidazol-1-yl)ethylsulfanylbutyl]sulfanyl}pyridin-2-yl-methyl)quinolin-3-ylamine], the “Appr. MIC 50” value in the data set with Helicobacter pylori is on record as “≦0.1 μg/ml”.

For the compound `Cc1c(SCCCSCc2ccc(Cl)s2)ccnc1CNc1cnc2ccccc2c1` [Compound 14, {4-[3-(5-Chlorothiophen-2-ylmethylsulfanyl)propylsulfanyl]-3-methylpyridin-2-ylmethyl}-quinolin-3-ylamine], the MIC50 with Helicobacter pylori was at most 0.1 µg/mL.

`Cc1c(SCCCSCCn2c([N+](=O)[O-])cnc2C)ccnc1CNc1cnc2ccccc2c1` [Compound 15, (3-Methyl-4-{3-[2-(2-methyl-5-nitroimidazol-1-yl)ethylsulfanyl]propylsulfanyl}-pyridin-2-ylmethyl)quinolin-3-ylamine] showed a melting point of 133 to 135 °C. In addition, in the data set with Helicobacter pylori, the MIC50 was at most 0.1 µg/mL.

Regarding `Cc1c(OCCCCSc2ncccn2)ccnc1CNc1cnc2ccccc2c1` [Compound 16, {3-Methyl-4-[4-(pyrimidin-2-ylsulfanyl)-butoxy]-pyridin-2-ylmethyl}-quinolin-3-yl-amine], the MIC50 in the data set on Helicobacter pylori was at most 0.1 µg/mL.

With `Cc1c(SCCCSCC2CN(C(C)C)C(=O)O2)ccnc1CNc1cnc2ccccc2c1` (stereo not drawn) [Compound 17, 3-Isopropyl-5-{3-[3-methyl-2-(quinolin-3-ylaminomethyl)-pyridin-4-ylsulfanyl]-propylsulfanylmethyl}-oxazolidin-2-one], the melting point is 100 to 104 °C. Besides, the MIC50 in the data set on Helicobacter pylori was at most 0.1 µg/mL.

For the compound `Cc1c(SCCCSCCCn2cc([N+](=O)[O-])nc2C)ccnc1CNc1cnc2ccccc2c1` [Compound 18, (3-Methyl-4-{3-[3-(2-methyl-4-nitro-imidazol-1-yl)-propylsulfanyl]-propylsulfanyl}-pyridin-2-ylmethyl)-quinolin-3-yl-amine], the melting point lay within 95 to 99 °C. For the same compound, the MIC50 in the data set on Helicobacter pylori is at most 0.1 µg/mL.

In turn, `Cc1c(SCCCSCC2CN(CC3CC3)C(=O)O2)ccnc1CNc1cnc2ccccc2c1` (stereo not drawn) [Compound 19, 3-Cyclopropylmethyl-5-{3-[3-methyl-2-(quinolin-3-ylaminomethyl)-pyridin-4ylsulfanyl]-propylsulfanylmethyl}-oxazolidin-2-one] showed a melting point of 78 to 81 °C. In the data set with Helicobacter pylori, the MIC50 is at most 0.1 µg/mL.

For `Cc1c(OCCCCSCC2CCCN(C)C2)ccnc1CNc1cnc2ccccc2c1` (stereo not drawn) [Compound 20, {3-Methyl-4-[4-(1-methyl-piperidin-3-ylmethylsulfanyl)-butoxy]-pyridin-2-ylmethyl}-quinolin-3-yl-amine], the MIC50 in the data set on Helicobacter pylori was at most 0.1 µg/mL.

On to `Cc1c(OCCSCc2ccncc2)ccnc1CNc1cnc2ccccc2c1` [Compound 21, {3-Methyl-4-[2-(pyridin-4-ylmethylsulfanyl)-ethoxy]-pyridin-2-ylmethyl}-quinolin-3-yl-amine], for which, in the data set on Helicobacter pylori, the MIC50 was at most 0.1 µg/mL.

`Cc1c(OCCSCCn2c([N+](=O)[O-])cnc2C)ccnc1CNc1cnc2ccccc2c1` [Compound 22, (3-Methyl-4-{2-[2-(2-methyl-5-nitro-imidazol-1-yl)-ethylsulfanyl]-ethoxy}-pyridin-2-ylmethyl)-quinolin-3-yl-amine] registered a melting point of 152 to 155 °C. Further, in the data set on Helicobacter pylori, the MIC50 was at most 0.1 µg/mL.

As for `Cc1c(OCCCSCCn2c([N+](=O)[O-])cnc2C)ccnc1CNc1cnc2ccccc2c1` [Compound 23, (3-Methyl-4-{3-[2-(2-methyl-5-nitro-imidazol-1-yl)-ethylsulfanyl]-propoxy}-pyridin-2-ylmethyl)-quinolin-3-yl-amine], the melting point was in the range of 138 to 141 °C. Besides, the MIC50 in the data set with Helicobacter pylori is at most 0.1 µg/mL.

With `Cc1c(OCCCSCc2ccncc2)ccnc1CNc1cnc2ccccc2c1` [Compound 24, {3-Methyl-4-[3-(pyridin-4-ylmethylsulfanyl)-propoxy]-pyridin-2-ylmethyl}-quinolin-3-yl-amine], in the data set with Helicobacter pylori, the MIC50 was at most 0.1 µg/mL.

`Cc1c(SCCCSCCO)ccnc1CNc1cnc2ccccc2c1` [Compound 25, 2-{3-[3-Methyl-2-(quinolin-3-ylaminomethyl)-pyridin-4-ylsulfanyl]-propylsulfanyl}-ethanol] displayed a melting point of 125 to 126 °C. In addition, in the data set on Helicobacter pylori, the MIC50 was at most 0.1 µg/mL.

`Cc1c(OCCCCSCCO)ccnc1CNc1cnc2ccccc2c1` [Compound 26, 2-{4-[3-Methyl-2-(quinolin3-ylaminomethyl)-pyridin-4-yloxy]-butylsulfanyl}-ethanol] returned a melting point of 119 to 120 °C. Further, the MIC50 in the data set on Helicobacter pylori is at most 0.1 µg/mL.

Consider `Cc1c(SCCCN2CCN(CC3CN(Cc4ccncc4)C(=O)O3)CC2)ccnc1CNc1cnc2ccccc2c1` (stereo not drawn) [Compound 27, 5-(4-{3-[3-Methyl-2-(quinolin-3-ylaminomethyl)-pyridin-4-ylsulfanyl]-propyl}-piperazin-1-ylmethyl)-3-pyridin-4-ylmethyl-oxazolidin-2-one], for which the MIC50 in the data set on Helicobacter pylori was at most 0.1 µg/mL.

Turning to `Cc1c(OCCOCCSCc2ccncc2)ccnc1CNc1cnc2ccccc2c1` [Compound 28, (3-Methyl-4-{2-[2-(pyridin-4-ylmethylsulfanyl)-ethoxy]-ethoxy}-pyridin-2-ylmethyl)-quinolin-3-yl-amine], the MIC50 in the data set on Helicobacter pylori was at most 0.1 µg/mL.

As to `Cc1c(SCCCSCc2ccccn2)ccnc1CNc1cnc2ccccc2c1` [Compound 29, {3-Methyl-4-[3-(pyridin-2-ylmethylsulfanyl)-propylsulfanyl]-pyridin-2-ylmethyl}-quinolin-3-yl-amine], the MIC50 in the data set with Helicobacter pylori is at most 0.1 µg/mL.

Compound `Cc1c(OCCOCCSCc2cccnc2)ccnc1CNc1cnc2ccccc2c1` [Compound 30, (3-Methyl-4-{2-[2-(pyridin-3-ylmethylsulfanyl)-ethoxy]-ethoxy}-pyridin-2-ylmethyl)-quinolin-3-yl-amine] registered a melting point of 84 to 86 °C. The MIC50 with Helicobacter pylori was at most 0.1 µg/mL.

`Cc1c(OCCOCCSCc2ccccn2)ccnc1CNc1cnc2ccccc2c1` [Compound 31, (3-Methyl-4-{2-[2-(pyridin-2-ylmethylsulfanyl)-ethoxy]-ethoxy}-pyridin-2-ylmethyl)-quinolin-3-yl-amine] had a melting point of 65 to 67 °C. Besides, in the data set on Helicobacter pylori, the MIC50 is at most 0.1 µg/mL.

In the case of `Cc1c(OCCSCc2cccnc2)ccnc1CNc1cnc2ccccc2c1` [Compound 33, {3-Methyl-4-[2-(pyridin-3-ylmethylsulfanyl)-ethoxy]-pyridin-2-ylmethyl}-quinolin-3-yl-amine], the MIC50 in the data set on Helicobacter pylori is at most 0.1 µg/mL.

Take `Cc1c(OCCSCc2ccccn2)ccnc1CNc1cnc2ccccc2c1` [Compound 34, {3-Methyl-4-[2-(pyridin-2-ylmethylsulfanyl)-ethoxy]-pyridin-2-ylmethyl}-quinolin-3-yl-amine]: the MIC50 in the data set on Helicobacter pylori was at most 0.1 µg/mL.

As for `Cc1c(SCCSCc2cccnc2)ccnc1CNc1cnc2ccccc2c1` [Compound 35, {3-Methyl-4-[2-(pyridin-3-ylmethylsulfanyl)-ethylsulfanyl]-pyridin-2-ylmethyl}-quinolin-3-yl-amine], in the data set with Helicobacter pylori, the MIC50 is at most 0.1 µg/mL.
